In patent publication US8263592B2, “Equilibrative nucleoside transporter ENT1 inhibitors” (Janssen Pharmaceutica NV, priority 2007, dated 2012):
Structures can show the parent of a compound that is named as a salt.

Assays:
[1] = target: T1, human ENT1 transporter (Homo sapiens, UniProt Q99808); assay: hENT1-NBMPR-ERYTH binding assay ([3H]NBMPR, human erythrocytes); conditions: [3H]NBMPR 1 nM, washed human red blood cells 1:200, 30 minutes at room temperature; pIC50=-log(IC50); read-out: pIC50 values for ENT1 transporter inhibition (converted)
T1 construct: with washed red blood cells diluted 1:200 in assay buffer; from tissue; host or cells: human erythrocytes (washed red blood cells from whole blood)
T1 sequence (Q99808 1-456): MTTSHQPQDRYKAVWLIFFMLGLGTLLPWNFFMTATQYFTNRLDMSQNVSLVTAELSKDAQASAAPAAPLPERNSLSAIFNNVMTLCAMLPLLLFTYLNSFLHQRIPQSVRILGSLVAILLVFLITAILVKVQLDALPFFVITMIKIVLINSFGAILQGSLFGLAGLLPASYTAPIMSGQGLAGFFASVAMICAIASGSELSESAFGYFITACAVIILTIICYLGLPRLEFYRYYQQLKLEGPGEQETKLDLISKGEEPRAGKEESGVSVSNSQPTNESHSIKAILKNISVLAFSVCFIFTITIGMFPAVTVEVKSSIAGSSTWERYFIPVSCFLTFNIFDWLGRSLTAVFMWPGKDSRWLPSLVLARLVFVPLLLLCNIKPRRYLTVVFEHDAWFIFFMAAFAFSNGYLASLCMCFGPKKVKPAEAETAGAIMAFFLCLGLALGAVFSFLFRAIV
Experimental: D. Pharmacological Data D.1hENT1-NBMPR-ERYTH Assay
The affinity of compounds to the human ENT1 transporter was determined in a binding assay using [^3H]NBMPR (19.9 Ci/mmol) from Moravek Biochemicals (Brea, Calif.). Erythrocytes were isolated from freshly isolated EDTA anti-coagulated human blood. 4 ml human whole blood was diluted in 11 ml wash buffer (20 mM MOPS, 130 mM NaCl, pH 7.4) and centrifuged at 800 g for 5 minutes. Erythrocytes were washed two times with wash buffer by centrifugation at 800 g for 5 minutes and then resuspended in wash buffer to the original whole blood volume and stored at −80° C. Binding experiments were performed at apparent binding equilibrium (30 minutes incubation at room temperature) with washed red blood cells diluted 1:200 in assay buffer (20 mM Tris, 140 mM NaCl, […], 2 mM MgCl2, 0.1 mM EDTA, 5 mM Glucose, pH 7.4) and 1 nM of radioligand. Test compounds were pre-incubated with the red blood cells for 30 minutes at room temperature. Non-specific binding was estimated in the presence of 1 μM Draflazine. The incubation was stopped by rapid filtration using Unifilter-96 GF/C filter plates on a 96-well PerkinElmer Filtermate harvester followed by three washes with ice-cold assay buffer. Bound radioactivity was determined by liquid scintillation counting (Topcount, (PerkinElmer)).

`CN1CCC(Oc2cc3c(cc2Cl)C(=O)NC2(CCN(CCNC(=O)c4c(Cl)cccc4Cl)CC2)O3)CC1` [Compound 26] gave an IC50 [1] of 11 nM.

`COCCCNc1cc2c(cc1C)C(=O)CC1(CCN(CCNC(=O)c3c(Cl)cccc3Cl)CC1)O2` (as salt: oxalate) [Compound 133] gave a melting point of 157.06 °C.

`Cc1c(O)ccc2c1OC1(CCN(CCNC(=O)c3c(Cl)cccc3Cl)CC1)CC2=O` [Compound 91] showed an IC50 [1] of 2.88 nM.

In the case of `O=C1CC2(CCN(CCNC(=O)c3c(Cl)cccc3Cl)CC2)Oc2c1ccc(NC1CCCC1)c2Cl` [Compound 208], the IC50 [1] is reported as 1.51 nM.

Compound `COC(=O)[C@H]1CC[C@H](Oc2cc3c(cc2C)C(=O)CC2(CCN(CCNC(=O)c4c(Cl)cccc4Cl)CC2)O3)CC1` (as salt: oxalate) [Compound 199] has a melting point of 191.24 °C.

Compound `CC(C)Nc1ccc2c(c1)OC1(CCN(CCNC(=O)c3c(Cl)cccc3Cl)CC1)NC2=O` [Compound 3] has an IC50 [1] of 4.27 nM.

In the case of `CC(C)(C)OC(=O)N1CCC(Oc2cc3c(cc2Cl)C(=O)NC2(CCN(CCNC(=O)c4c(Cl)cccc4Cl)CC2)O3)CC1` [Compound 22], the IC50 [1] is reported as 0.224 nM and the melting point is reported as 172.85 °C.

`Cc1cc2c(cc1NC1CCCC1)OC1(CCN(CCNC(=O)c3c(Cl)cccc3Cl)CC1)CC2=O` [Compound 127] gave an IC50 [1] of 0.776 nM.

For `CCCCNc1ccc2c(c1)C(=O)CC1(CCN(CCNC(=O)c3c(Cl)cccc3Cl)CC1)O2` [Compound 97], the IC50 [1] was 12 nM and the melting point was 153.71 to 156.93 °C.

Compound `O=C1CC2(CCN(CCNC(=O)c3c(Cl)cccc3Cl)CC2)Oc2cc(O)ccc21` [Compound 93] has an IC50 [1] of 120 nM and a melting point of 209.19 °C.

Compound `Cc1cccc(C)c1C(=O)NCCN1CCC2(CC1)NC(=O)c1cc(Cl)c(OC(C)C)cc1O2` [Compound 151] has an IC50 [1] of 22.9 nM and a melting point of 201.61 to 204.2 °C.

Compound `COCCCNc1cc2c(cc1C)C(=O)CC1(CCN(CCNC(=O)c3c(Cl)cccc3Cl)CC1)O2` [Compound 133] has an IC50 [1] of 1.82 nM.

Work on `Nc1cc2c(cc1Cl)C(=O)NC1(CCN(CCNC(=O)c3c(Cl)cccc3Cl)CC1)O2` [Compound 1] yielded an IC50 [1] of 89.1 nM and a melting point of 245.39 °C.

For `O=C1NC2(CCN(CCNC(=O)c3c(Cl)cccc3Cl)CC2)Oc2cc(OC3CCNCC3)c(Cl)cc21` [Compound 23], the IC50 [1] was 10.2 nM.

Compound `CC(=O)N1CCC(Oc2cc3c(cc2Cl)C=CC2(CCN(CCNC(=O)c4c(Cl)cccc4Cl)CC2)O3)CC1` [Compound 108] has an IC50 [1] of 0.0447 nM.

Work on `O=C1NC2(CCN(CCNC(=O)c3c(Cl)cccc3Cl)CC2)Oc2c(NC3CCCC3)cc(Cl)cc21` [Compound 223] yielded an IC50 [1] of 3.8 nM and a melting point of 238.02 °C.

`Cc1cc(OC2CCCC2)c2c(c1)C(=O)CC1(CCN(CCNC(=O)c3c(Cl)cccc3Cl)CC1)O2` [Compound 189] showed an IC50 [1] of 2.57 nM and a melting point of 135.95 °C.

`CC(=O)N1CCC(Oc2cc3c(cc2Cl)C(=O)NC2(CCN(CCNC(=O)c4c(Cl)cccc4Cl)CC2)O3)CC1` [Compound 27] showed an IC50 [1] of 0.776 nM and a melting point of 146.87 °C.

For `COC(=O)[C@H]1CC[C@@H](Oc2cc3c(cc2C)C(=O)CC2(CCN(CCNC(=O)c4c(Cl)cccc4Cl)CC2)O3)CC1` [Compound 222], the IC50 [1] was 0.531 nM.

Work on `O=C1NC2(CCN(CCNC(=O)c3c(Cl)cccc3Cl)CC2)Oc2c1cc(Cl)cc2N1CCOCC1` [Compound 205] yielded an IC50 [1] of 107 nM and a melting point of 245.16 °C.

With `COC(=O)[C@H]1CC[C@H](Oc2cc3c(cc2C)C(=O)CC2(CCN(CCNC(=O)c4c(Cl)cccc4Cl)CC2)O3)CC1` [Compound 199] the IC50 [1] was 0.343 nM.

For `Nc1cc2c(cc1Cl)CCC1(CCN(CCNC(=O)c3c(Cl)cccc3Cl)CC1)O2` [Compound 10], the IC50 [1] was 18.6 nM and the melting point was 191.14 °C.

`Cc1cc2c(cc1NCCCO)OC1(CCN(CCNC(=O)c3c(Cl)cccc3Cl)CC1)CC2=O` [Compound 141] showed an IC50 [1] of 3.72 nM.

For `Cc1c(O)ccc2c1OC1(CCN(CCNC(=O)c3c(Cl)cccc3Cl)CC1)CC2=O` (as salt: hydrochloric acid salt) [Compound 91], the melting point was 187.06 °C.

`CC(=O)N1CCC(Nc2cc3c(cc2Cl)C(=O)NC2(CCN(CCNC(=O)c4c(Cl)cccc4Cl)CC2)O3)CC1` [Compound 96] gave an IC50 [1] of 0.776 nM and a melting point of 238.27 °C.

In the case of `CNc1cc2c(cc1Cl)CCC1(CCN(CCNC(=O)c3c(Cl)cccc3Cl)CC1)O2` [Compound 239], the IC50 [1] is reported as 1.53 nM.

Work on `O=C1CC2(CCN(CCNC(=O)c3c(Cl)cccc3Cl)CC2)Oc2ccccc21` [Compound 45] yielded an IC50 [1] of 417 nM and a melting point of 197.7 to 198.6 °C.

For `Nc1ccc2c(c1Cl)OC1(CCN(CCNC(=O)c3c(Cl)cccc3Cl)CC1)CC2=O` [Compound 130], the IC50 [1] was 9.77 nM and the melting point was 236.63 °C.

Compound `COCNc1cc2c(cc1Cl)C(=O)NC1(CCN(CCNC(=O)c3c(Cl)cccc3Cl)CC1)O2` [Compound 2] has an IC50 [1] of 6.46 nM.

For `CC(=O)N1CCC(Oc2cc3c(cc2Cl)CCC2(CCN(CCNC(=O)c4c(Cl)cccc4Cl)CC2)O3)CC1` [Compound 117], the IC50 [1] was 0.589 nM.

With `CNCCCNc1cc2c(cc1Cl)C(=O)NC1(CCN(CCNC(=O)c3c(Cl)cccc3Cl)CC1)O2` [Compound 43] the IC50 [1] was 89.1 nM.
